{"source": "paper PMC11374673", "about": "“Discovery of isoquinoline sulfonamides as allosteric gyrase inhibitors with activity against fluoroquinolone-resistant bacteria” (Nature Chemistry, 2024)", "key": {"E. coli": {"test_system": "E. coli", "experiment": "Checkerboard assay LEI-800 with CIP;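 further: bacterial growth read as OD600 after 20 h at 37 °C with shaking, each drug pair tested in triplicate wells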", "type": "cell-based, Escherichia coli"}, "E. coli BW25113": {"test_system": "E. coli BW25113", "experiment": "Bacterial cytological profiling (BCP)", "type": "cell-based, Escherichia coli", "parameters": "DAPI total area / DAPI nucleoid area / DIC area / DIC curvature / DIC feret / DIC length / DIC orientation: unit not given here", "procedure": "Overnight E. coli BW25113 cultures were diluted 1:100 in fresh LB medium in a 100 ml Erlenmeyer flask and incubated at 120 r.p.m. and 37 °C. When OD600 >0.2, the cultures were diluted to OD600 of 0.1 in fresh LB medium with a final volume of 200 µl in a 2 ml Eppendorf tube. The appropriate antibiotic or control treatment was applied and the samples were incubated at 200 r.p.m. and 30 °C for 2 h. Subsequently, 4,6-diamidino-2-phenylindole (DAPI) (2 µg ml^−1), FM4-64 (2 µg ml^−1) and SYTOX Green (0.5 µM) were added to reach the desired concentration and the samples were incubated a further 10 min. The samples were then centrifuged at 3,300g for 50 s and the pellets resuspended in half the original volume. From this suspension, 5 µl was spotted onto a 2.0% agarose pad for microscopy.\nMicroscopy was performed on a Zeiss Axio Observer Z1/7 inverted microscope.\nFor the qualitative assessment of the bacterial morphology, the acquired images were first pre-processed in ImageJ (v1.53m)[47]. Thereafter the brightness and contrast were adjusted to allow the clearest visual inspection of the particular phenotype. For the quantitative BCP, DIC images were first pre-processed and then a random forest classifier was trained with Illastik (v1.3.3)[48] to generate a segmented image. These binary masks were then combined together with the original DIC image and processed with the ImageJ plugin MicrobeJ (v 5.13l)[49]. MicrobeJ generated cell outlines and performed measurements on cell shape accordingly. The recorded cell outlines produced by MicrobeJ were exported and used as a guide to characterize the DNA shape within each bacterium using a custom-made ImageJ macro (Appendix II). DAPI and SYTOX Green intensity were measured on raw images in a similar manner. Then, by hand, polygons were drawn that excluded bacteria to determine background intensity. After background correction the intensity was standardized to the DMSO control within the same biological replicate. For PCA, the BCP assay was executed for three independently biological replicates. During each experiment, images were acquired until 24 or more bacteria in total had been observed. Following feature extraction for each replicate, principal component analysis was performed using GraphPad Prism (v9.0.0) using multiple variable analysis with standardized data. Principal components (PCs) were selected based on the per cent of total explained variance (minimum 80%)."}, "[1]": {"details": "Ciprofloxacin 0 nM + LEI-800 0.1 µM"}, "[2]": {"details": "Ciprofloxacin 0 nM + LEI-800 0.2 µM"}, "[3]": {"details": "Ciprofloxacin 0 nM + LEI-800 0.4 µM"}, "[4]": {"details": "Ciprofloxacin 0 nM + LEI-800 0.8 µM"}, "[5]": {"details": "Ciprofloxacin 0 nM + LEI-800 3.1 µM"}, "[6]": {"details": "Ciprofloxacin 0 nM + LEI-800 6.2 µM"}, "[7]": {"details": "BCP, standardized to DMSO control"}}, "note": "Where “and” joins values, the source holds several entries; their conditions need not be identical. Equal values may be shown once. Entries after “also recorded” stand apart in the source; their conditions may differ.", "data": [{"molecule": "O=S(=O)(NC[C@@H]1CC[C@H](c2ccc(-c3cccnc3)cc2)N1)c1cccc2cnccc12", "note": "[LEI-800]", "values": [{"measurement": "checkerboard plate reading, Average values", "setting": "E. coli; [1]", "value": 0.7858}, {"measurement": "checkerboard plate reading, replicate wells", "setting": "E. coli; [1]", "value": "0.7683 and 0.7669 and 0.8222"}, {"measurement": "checkerboard plate reading, Average values", "setting": "E. coli; [2]", "value": 0.7715}, {"measurement": "checkerboard plate reading, replicate wells", "setting": "E. coli; [2]", "value": "0.7509 and 0.7706 and 0.7931"}, {"measurement": "checkerboard plate reading, Average values", "setting": "E. coli; [3]", "value": 0.7601}, {"measurement": "checkerboard plate reading, replicate wells", "setting": "E. coli; [3]", "value": "0.7802 and 0.7598 and 0.7404"}, {"measurement": "checkerboard plate reading, Average values", "setting": "E. coli; [4]", "value": 0.5878}, {"measurement": "checkerboard plate reading, replicate wells", "setting": "E. coli; [4]", "value": "0.6002 and 0.5903 and 0.5728"}, {"measurement": "checkerboard plate reading, Average values", "setting": "E. coli; [5]", "value": 0.291}, {"measurement": "checkerboard plate reading, replicate wells", "setting": "E. coli; [5]", "value": "0.2991 and 0.2865 and 0.2872"}, {"measurement": "checkerboard plate reading, Average values", "setting": "E. coli; [6]", "value": 0.1602}, {"measurement": "checkerboard plate reading, replicate wells", "setting": "E. coli; [6]", "value": "0.157 and 0.1619 and 0.1616"}, {"measurement": "checkerboard plate reading, Average values", "setting": "E. coli; Ciprofloxacin 0 nM + LEI-800 […]", "value": 0.4748}, {"measurement": "PCA clustering of 24 BCP features", "setting": "E. coli BW25113", "value": "formed a cluster by itself"}, {"measurement": "DAPI aspect ratio", "setting": "E. coli BW25113; BCP", "value": "5.858 ± 1.821"}, {"measurement": "DAPI circularity", "setting": "E. coli BW25113; BCP", "value": "0.365 ± 0.084"}, {"measurement": "DAPI nucleoid area", "setting": "E. coli BW25113; BCP", "value": "6.481 ± 2.006"}, {"measurement": "DAPI nucleoids", "setting": "E. coli BW25113; BCP", "value": "1.368 ± 0.202"}, {"measurement": "DAPI perimeter", "setting": "E. coli BW25113; BCP", "value": "16.318 ± 5.417"}, {"measurement": "DAPI roundness", "setting": "E. coli BW25113; BCP", "value": "0.220 ± 0.035"}, {"measurement": "DAPI solidity", "setting": "E. coli BW25113; BCP", "value": "0.808 ± 0.077"}, {"measurement": "DAPI total area", "setting": "E. coli BW25113; BCP", "value": "8.438 ± 3.339"}, {"measurement": "DIC area", "setting": "E. coli BW25113; BCP", "value": "13.636 ± 0.225"}, {"measurement": "DIC aspect ratio", "setting": "E. coli BW25113; BCP", "value": "6.808 ± 0.283"}, {"measurement": "DIC circularity", "setting": "E. coli BW25113; BCP", "value": "0.292 ± 0.021"}, {"measurement": "DIC curvature", "setting": "E. coli BW25113; BCP", "value": "0.034 ± 0.003"}, {"measurement": "DIC feret", "setting": "E. coli BW25113; BCP", "value": "11.758 ± 0.377"}, {"measurement": "DIC length", "setting": "E. coli BW25113; BCP", "value": "11.910 ± 0.403"}, {"measurement": "DIC orientation", "setting": "E. coli BW25113; BCP", "value": "88.418 ± 18.119"}, {"measurement": "DIC perimeter", "setting": "E. coli BW25113; BCP", "value": "25.156 ± 0.728"}, {"measurement": "DIC roundness", "setting": "E. coli BW25113; BCP", "value": "0.139 ± 0.012"}, {"measurement": "DIC sinuosity", "setting": "E. coli BW25113; BCP", "value": "1.021 ± 0.003"}, {"measurement": "DIC solidity", "setting": "E. coli BW25113; BCP", "value": "0.793 ± 0.033"}, {"measurement": "DIC width", "setting": "E. coli BW25113; BCP", "value": "1.163 ± 0.063"}, {"measurement": "Decondensation", "setting": "E. coli BW25113; BCP", "value": "0.616 ± 0.234"}, {"measurement": "morphological phenotype", "setting": "E. coli BW25113; BCP microscopy, 6.25 µM", "value": "elongation of the bacteria and condensation of the DNA; also recorded: phenotype resembling the CIP and TET morphological profile"}, {"measurement": "DIC angularity", "setting": "E. coli BW25113; BCP, 2 h, AMP 12.5, RIF 12.5, TET 6.25, CIP 0.0625, LEI-801 6.25, LEI-800 6.25 µM, average ± SD of 3 replicates", "value": "0.076 ± 0.010"}, {"measurement": "DAPI intensity", "setting": "E. coli BW25113; [7]", "value": "0.513 ± 0.191"}, {"measurement": "SYTOX Green intensity", "setting": "E. coli BW25113; [7]", "value": "2.259 ± 1.119"}]}]}
